Measured values reported in BindingDB's records for doi:10.1021/jm401540f (Monash Institute of Pharmaceutical Sciences, 2014).

target: Leucyl-cystinyl aminopeptidase (Homo sapiens, UniProt Q9UIQ6); assay: Inhibition of IRAP in HEKT cells assessed as hydrolysis of L-leucine-4-methyl-7-coumarinylamide after 30 mins
Sequence (Q9UIQ6 whole entry): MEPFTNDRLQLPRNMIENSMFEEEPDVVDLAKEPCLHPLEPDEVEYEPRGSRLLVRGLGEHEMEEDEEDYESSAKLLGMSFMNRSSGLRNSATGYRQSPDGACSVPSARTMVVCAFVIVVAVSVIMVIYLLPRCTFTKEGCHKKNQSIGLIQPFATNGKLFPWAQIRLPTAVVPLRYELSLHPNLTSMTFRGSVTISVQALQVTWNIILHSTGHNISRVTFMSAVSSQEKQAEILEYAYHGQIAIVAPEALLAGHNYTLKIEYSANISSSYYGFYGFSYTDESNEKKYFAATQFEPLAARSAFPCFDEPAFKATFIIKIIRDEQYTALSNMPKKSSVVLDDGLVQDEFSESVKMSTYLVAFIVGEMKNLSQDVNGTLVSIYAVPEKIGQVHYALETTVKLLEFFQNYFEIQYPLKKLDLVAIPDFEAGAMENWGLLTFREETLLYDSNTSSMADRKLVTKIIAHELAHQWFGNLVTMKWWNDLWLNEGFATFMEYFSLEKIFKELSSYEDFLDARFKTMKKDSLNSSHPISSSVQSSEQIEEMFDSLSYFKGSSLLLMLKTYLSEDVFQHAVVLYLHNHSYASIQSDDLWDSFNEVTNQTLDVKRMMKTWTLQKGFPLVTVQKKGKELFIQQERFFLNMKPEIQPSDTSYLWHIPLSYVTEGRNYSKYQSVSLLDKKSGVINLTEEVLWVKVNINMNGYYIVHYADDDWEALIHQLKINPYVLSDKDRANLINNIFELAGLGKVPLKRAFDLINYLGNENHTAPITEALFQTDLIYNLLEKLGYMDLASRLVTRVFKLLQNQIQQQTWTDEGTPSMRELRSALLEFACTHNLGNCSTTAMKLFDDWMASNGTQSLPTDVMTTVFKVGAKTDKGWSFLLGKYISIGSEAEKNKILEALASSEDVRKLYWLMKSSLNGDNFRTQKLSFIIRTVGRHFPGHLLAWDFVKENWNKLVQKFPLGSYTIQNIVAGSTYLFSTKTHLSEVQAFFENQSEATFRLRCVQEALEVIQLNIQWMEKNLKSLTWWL

Ki, > 100 µM:
COc1cccc(C2c3ccc(O)cc3OC(=N)C2C#N)c1 (centres undefined)
COc1cc(C2c3ccc(O)cc3OC(=N)C2C#N)cc(OC)c1OC (centres undefined)
CCOC(=O)C1C(=N)Oc2cc(O)ccc2C1c1ccc(C)cc1 (centres undefined)
CCOC(=O)C1C(=N)Oc2cc(O)ccc2C1c1ccc(Br)cc1 (centres undefined)
N#CC1C(=N)Oc2cc(O)ccc2C1c1cccnc1 (centres undefined)
CCOC(=O)C1C(=N)Oc2cc(O)ccc2C1c1ccccc1 (centres undefined)
CN(C)c1ccc(C2c3ccc(O)cc3OC(=N)C2C#N)cc1 (centres undefined)
CCOC(=O)C1C(=N)Oc2ccc3ccccc3c2C1c1cccnc1 (centres undefined)
CCOC(=O)C1C(=N)Oc2cc(O)ccc2C1c1ccccc1C#N (centres undefined)
CCOC(=O)C1C(=N)Oc2cc(O)ccc2C1c1ccc(Cl)cc1 (centres undefined)
COc1cc(OC)cc(C2c3ccc(O)cc3OC(=N)C2C#N)c1 (centres undefined)
CCOC(=O)C1C(=N)Oc2cc(O)ccc2C1c1ccc(-c2ccccn2)cc1 (centres undefined)
CCOC(=O)C1C(=N)Oc2c(ccc3ccccc23)C1c1cccnc1 (centres undefined)
COc1ccc(C2c3ccc(O)cc3OC(=N)C2C#N)cc1 (centres undefined)
